A word on the GI50: it is the concentration giving 50% growth inhibition. The term melting point denotes the temperature, or range, at which the solid turns liquid.

Structures are written as SMILES.

For series [1], the system named is LOX IMVI. As to the kind of experiment: In vitro anticancer assay (NCI panel), LOX IMVI. The note with it: Homo sapiens, melanoma. The class given is cell-based. The method, then:
(§1) Selected compounds were evaluated in vitro against the NCI's full panel of 60 cancer cell lines derived from nine cancer cell types, including: leukemia (CCRF-CEM, HL-60 (TB), K-562, MOLT-4, RPMI-8226, and SR); non-small cell lung cancer (A549/ATCC, EKVX, HOP-62, HOP-92, NCI-H226, NCI-H23, NCI-H322M, and NCI-H522); colon cancer (COLO 205, HCC-2998, HCT-116, HCT-15, HT29, KM12, and SW-620); CNS cancer (SF-268, SF-295, SF-539, SNB-19, SNB-75, and U251); melanoma (LOX IMVI, MALME-3M, M14, SK-MEL-2, SK-MEL-28, SK-MEL-5, UACC-62, and UACC-257); ovarian cancer (IGROV1, OVCAR-3, OVCAR-4, OVCAR-5, OVCAR-8, and SK-OV-3); renal cancer (786-0, A498, ACHN, CAKI-1, RXF 393, SN12C, TK-10, and UO-31); prostate cancer (PC-3 and DU-145); and breast cancer (MCF7, MCF7/ADR-RES, MDA-MB-231/ATCC, HS 578T, MDA-MB-435, MDA-N, and T-47D). For each compound, dose-response curves for each cell line were measured with five different drug concentrations, and the concentration causing 50% cell growth inhibition (GI50) compared with the control was calculated. The mean GI50 values of each tested compound for all the 60 tumor cell lines were also calculated.

Series [2] relates to OVCAR-3. Briefly: In vitro anticancer assay (NCI panel), OVCAR-3. In kind it is cell-based. The note with it: Homo sapiens; OVCAR-3, ovarian cancer. The method, then:
as §1

Series [3] relates to SF-268. Briefly: In vitro anticancer assay (NCI panel), SF-268. The class given is cell-based. The note with it: Homo sapiens; SF-268, CNS cancer. The method, then: as §1
Series [4] relates to A549/ATCC. Briefly: In vitro anticancer assay (NCI panel), A549/ATCC. In kind it is cell-based. The note with it: Homo sapiens, non-small cell lung cancer. The method, then:
as §1

Series [5] relates to SN12C. Briefly: In vitro anticancer assay (NCI panel), SN12C. The class given is cell-based. As to conditions: Homo sapiens, renal cancer. As to the method: as §1
Series [6] concerns SR. Briefly: In vitro anticancer assay (NCI panel), SR. In kind it is cell-based. As to conditions: Homo sapiens, leukemia. As to the method:
as §1

Series [7] relates to HT29. Briefly: In vitro anticancer assay (NCI panel), HT29. The class given is cell-based. The note with it: Homo sapiens, HT-29; HT29, colon cancer. As to the method:
as §1

For series [8], the system named is SK-MEL-2. Briefly: In vitro anticancer assay (NCI panel), SK-MEL-2. In kind it is cell-based. The note with it: Homo sapiens; SK-MEL-2, melanoma. The method, then:
as §1

Series [9] deals with HOP-62. Briefly: In vitro anticancer assay (NCI panel), HOP-62. As to conditions: Homo sapiens; HOP-62, non-small cell lung cancer. In kind it is cell-based. As to the method: as §1
For series [10], the system named is HCT-116. As to the kind of experiment: In vitro anticancer assay (NCI panel), HCT-116. The class given is cell-based. The note with it: Homo sapiens; HCT-116, colon cancer. The method, then:
as §1

For series [11], the system named is K-562. Briefly: In vitro anticancer assay (NCI panel), K-562. As to conditions: Homo sapiens, K562; K-562, leukemia. The class given is cell-based. As to the method: as §1
For series [12], the system named is 786-0. As to the kind of experiment: In vitro anticancer assay (NCI panel), 786-0. The class given is cell-based. The note with it: Homo sapiens; 786-0, renal cancer. The method, then: as §1
Series [13] deals with telomerase (Homo sapiens, UniProt O14746). As to the kind of experiment: Telomeric Repeat Amplification Protocol (TRAP) assay, cell-free. The note with it: 0.5 μg total cell extract from H1299 human lung cancer cells, FIG. 1.
Series [14] concerns NCI's full panel of 60 cancer cell lines. Briefly: In vitro anticancer assay, all cell lines of the NCI panel. In kind it is cell-based, human. As to conditions: Homo sapiens, mean values of over all cell lines tested; read-out: MG MID (mean GI50). The method, then:
as §1

For series [15], the system named is PC-3. As to the kind of experiment: In vitro anticancer assay (NCI panel), PC-3. The class given is cell-based. As to conditions: Homo sapiens; PC-3, prostate cancer. The method, then:
as §1

Series [16] relates to UACC-62. Briefly: In vitro anticancer assay (NCI panel), UACC-62. In kind it is cell-based. The note with it: Homo sapiens; UACC-62, melanoma. The method, then:
as §1

Series [17] has as its system MDA-MB-231/ATCC. As to the kind of experiment: In vitro anticancer assay (NCI panel), MDA-MB-231/ATCC. In kind it is cell-based. As to conditions: Homo sapiens, breast cancer. The method, then: as §1
Series [18] relates to OVCAR-8. As to the kind of experiment: In vitro anticancer assay (NCI panel), OVCAR-8. The class given is cell-based. As to conditions: Homo sapiens; OVCAR-8, ovarian cancer. As to the method: as §1
Series [19] relates to MCF7. As to the kind of experiment: In vitro anticancer assay (NCI panel), MCF7. The class given is cell-based. As to conditions: Homo sapiens; MCF7, breast cancer. As to the method:
as §1

In series [20] the test system is HL-60 (TB). As to the kind of experiment: In vitro anticancer assay (NCI 60 cell line panel), HL-60 (TB). In kind it is cell-based. As to conditions: Homo sapiens, leukemia. As to the method: as §1
Series [21] has as its system SNB-19. As to the kind of experiment: In vitro anticancer assay (NCI panel), SNB-19. In kind it is cell-based. The note with it: Homo sapiens; SNB-19, CNS cancer. As to the method:
as §1

The test system of series [22] is ACHN. As to the kind of experiment: In vitro anticancer assay (NCI panel), ACHN. As to conditions: Homo sapiens, renal cancer. In kind it is cell-based. The method, then: as §1
In series [23] the test system is NCI-H460. As to the kind of experiment: In vitro anticancer assay (NCI panel), NCI-H460. In kind it is cell-based. As to conditions: Homo sapiens; NCI-H460, non-small cell lung cancer. The method, then:
as §1

The subject of series [24] is COLO 205. As to the kind of experiment: In vitro anticancer assay (NCI panel), COLO 205. The class given is cell-based. The note with it: Homo sapiens; COLO 205, colon cancer. As to the method:
as §1

For series [25], the system named is OVCAR-5. Briefly: In vitro anticancer assay (NCI panel), OVCAR-5. The note with it: Homo sapiens; OVCAR-5, ovarian cancer. In kind it is cell-based. The method, then: as §1
The subject of series [26] is SF-295. As to the kind of experiment: In vitro anticancer assay (NCI panel), SF-295. In kind it is cell-based. As to conditions: Homo sapiens; SF-295, CNS cancer. As to the method: as §1
The subject of series [27] is DU-145. As to the kind of experiment: In vitro anticancer assay (NCI panel), DU-145. In kind it is cell-based. The note with it: Homo sapiens; DU-145, prostate cancer. The method, then: as §1
The test system of series [28] is MDA-MB-435. Briefly: In vitro anticancer assay (NCI panel), MDA-MB-435. The class given is cell-based. The note with it: Homo sapiens; MDA-MB-435, breast cancer. The method, then: as §1
The subject of series [29] is human leukemia HL-60 cells. The note with it: previous studies, read-out: GI50 (50% cell growth inhibition); cited from earlier work.

telomerase, sequence (O14746 whole entry): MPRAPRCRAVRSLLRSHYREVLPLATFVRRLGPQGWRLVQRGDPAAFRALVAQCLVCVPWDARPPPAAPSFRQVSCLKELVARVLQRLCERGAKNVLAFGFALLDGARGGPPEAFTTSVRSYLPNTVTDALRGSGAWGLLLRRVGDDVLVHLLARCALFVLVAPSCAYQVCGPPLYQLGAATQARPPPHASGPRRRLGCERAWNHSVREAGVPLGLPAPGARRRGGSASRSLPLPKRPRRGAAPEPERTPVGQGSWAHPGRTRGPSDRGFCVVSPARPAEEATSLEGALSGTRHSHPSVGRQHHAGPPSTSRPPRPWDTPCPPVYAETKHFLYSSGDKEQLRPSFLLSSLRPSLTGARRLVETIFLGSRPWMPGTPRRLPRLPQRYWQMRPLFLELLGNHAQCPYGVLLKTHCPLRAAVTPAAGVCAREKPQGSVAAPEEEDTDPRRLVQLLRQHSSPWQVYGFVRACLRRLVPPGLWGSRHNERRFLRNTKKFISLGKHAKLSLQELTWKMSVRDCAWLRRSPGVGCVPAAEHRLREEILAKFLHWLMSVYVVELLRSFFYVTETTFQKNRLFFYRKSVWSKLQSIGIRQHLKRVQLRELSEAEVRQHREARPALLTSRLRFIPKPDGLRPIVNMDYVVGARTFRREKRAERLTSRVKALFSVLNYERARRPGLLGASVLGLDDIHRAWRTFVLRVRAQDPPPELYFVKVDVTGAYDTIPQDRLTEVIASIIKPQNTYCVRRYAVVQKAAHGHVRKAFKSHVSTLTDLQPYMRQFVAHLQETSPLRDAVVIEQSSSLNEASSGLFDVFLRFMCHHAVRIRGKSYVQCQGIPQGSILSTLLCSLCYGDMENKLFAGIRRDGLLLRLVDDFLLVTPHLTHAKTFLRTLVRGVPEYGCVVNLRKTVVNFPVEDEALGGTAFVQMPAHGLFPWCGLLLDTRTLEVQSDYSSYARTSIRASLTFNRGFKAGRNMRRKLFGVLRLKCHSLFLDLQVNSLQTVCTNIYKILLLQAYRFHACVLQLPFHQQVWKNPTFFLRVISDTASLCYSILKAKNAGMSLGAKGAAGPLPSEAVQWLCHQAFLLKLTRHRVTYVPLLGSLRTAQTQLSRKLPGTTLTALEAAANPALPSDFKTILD

The molecule `Cl.c1ccc2c(c1)nc(NCCCNCCCNc1nc3ccccc3c3[nH]c4ccccc4c13)c1c3ccccc3[nH]c21` [Compound 8a, N,N-bis-[3-(11H-indolo[3,2-c]quinolin-6-yl)aminopropyl]amine hydrochloride] had a melting point of 107 to 108 °C. This molecule showed a GI50 in [1] of 70 nM. Further, in series [2], halving of growth (GI50) required 520 nM. Besides, in series [3], halving of growth (GI50) required 30 nM. This molecule had a GI50 in series [4] of 60 nM. Also, the GI50 in series [5] turned out to be 30 nM. In addition, growth in series [6] was halved (GI50) at 30 nM. This molecule also gave a GI50 in series [7] of 50 nM. Further, growth in series [8] was halved (GI50) at 550 nM. In addition, the GI50 in [9] was 50 nM. In series [10], the GI50 was found to be 170 nM. In series [11], this molecule yielded a GI50 of 40 nM. In [12], this molecule registered a GI50 of 70 nM. The “concentration that completely inhibited telomerase activity” value in series [13] is recorded as “approximately 0.02 nM”. Also, the GI50 in series [14] is 150 nM. The molecule further had a GI50 in series [15] of 360 nM. This molecule also registered a GI50 in [16] of 220 nM. This molecule gave a GI50 in [17] of 180 nM. It took 40 nM to inhibit growth in series [18] by half (GI50). For the same molecule, in [19], the 50% growth inhibitory concentration (GI50) came out at 10 nM. This molecule also registered a GI50 in [20] of 40 nM. The molecule further had a GI50 in series [21] of 70 nM. The molecule further gave a GI50 in series [22] of 60 nM. Also, in [23], it took 40 nM to inhibit growth by half (GI50). Also, halving of growth in series [24] (GI50) required 180 nM. In series [25], this molecule gave a GI50 of 220 nM. This molecule also returned a GI50 in [26] of 100 nM. The GI50 in series [27] is 130 nM. This molecule yielded a GI50 in [28] of 850 nM.
Consider `CN(C)CCNc1nc2ccccc2c2[nH]c3ccccc3c12` [IQDMA, N′-(11H-indolo[3,2-c]quinolin-6-yl)-N,N-dimethyl-ethane-1,2-diamine], for which the GI50 in [29] is 1980 nM.

The values above are taken from patent US8273760B2, “Indolo[3,2-c]quinoline compounds” (Kaohsiung Medical University, priority 2008, dated 2012).
